Experimental data published in PMC11505038, “Kalata B1 Enhances Temozolomide Toxicity to Glioblastoma Cells” (Biomedicines, 2024).
Where a SMILES comes first, the peptide text is derived from it. Bridges are numbered along the chain shown (N, C = ends).

Columns and labels:
[1] = system: U-87 MG human glioblastoma cells; test: cells; details: read-out: IC50 (μM) ± S.D.; U-87 MG, MTT, 72 h, 6000 cells/well, cyclotides 0.1-10 μM, TMZ 0.5-5000 μM, best fit nonlinear regression, triplicate wells, n = 3
Procedure: SH-SY5Y human neuroblastoma cells (population doubling (PD) 20−24), T-98G, and U-87 MG human glioblastoma cells were removed from cryogenic storage, thawed rapidly in a water bath (37 °C) and reconstituted in 75 cm^2 flasks. For SH-SY5Y, the following media were used: Dulbecco’s modified Eagle’s medium/Nutrient F12 Ham (Sigma-Aldrich, Cat. No. D8437) containing 10% heat-inactivated fetal bovine serum, 4 mM L-glutamine, 100 U/mL penicillin, and 100 μg/mL streptomycin. For U-87 MG and T-98G Eagle’s minimal essential medium (ATCC: The Global Bioresource Center, Cat. No. ATCC 30-2003), containing 10% heat-inactivated fetal bovine serum, 4 mM L-glutamine, 100 U/mL penicillin, and 100 μg/mL streptomycin were used.
Cells were incubated at 37 °C in a humidified atmosphere of 5% CO2 and 95% air until recovered and ready for passaging (approximately 4 days). At between 80% and 90% confluence, the cells were trypsinized with warm (37 °C) sterile 0.5% Trypsin-EDTA (Thermo Fisher, Cat. No. 15400054) and passaged into 175 cm^2 flasks, where they were left to multiply until they reached 80−90% confluence. To plate cells: cultures were trypsinized, resuspended in 20 mL sterile PBS, counted using a cell counter (Olympus cell counter model R1), and plated in 96-well plates at an optimal density of 6000 cells/well in the designated culture media. The cells were left to adhere overnight before treatment the following day, when the culture medium was removed and replaced with the treatment medium. All incubations were conducted in triplicate wells and repeated at least three times (n = 3).
To calculate TMZ IC50 values in each cell line, TMZ was dissolved in DMSO at a stock concentration of 103 mM, which was then diluted into culture medium on the day of use, with the DMSO final concentration always less than 0.1%. The following concentrations of TMZ were used in the experiments: 0.5, 5, 50, 500, 2500, 5000 μM. The media were sterilized for each treatment media with a 0.22 μm filter before they were added to cell cultures. To determine the IC50 values for each cyclotide in each cell type, cyclotides were dissolved into 10% DMSO and then dilutions used to screen cyclotides with a final DMSO concentration of less than 0.1% The following concentrations of cyclotides were used: 0.1, 1, 5, 10 μM. For co-exposure experiments, a simultaneous exposure of cyclotide and TMZ at each respective dose was added to cell cultures (100 μL final volume per well).
In accordance with the methods developed by Mosmann and colleagues, the MTT assay was conducted using the Roche cell proliferation kit (Cat. No. 11465007001). Briefly, cells that are active can cleave MTT. The MTT is originally a yellow tetrazolium salt that undergoes a colorimetric change to purple formazan crystals, and the change in absorbance can be measured as an indicator of cell viability/proliferation. For these experiments, cells were plated into 96-well flat-bottom plates, as described in the cell culture above. […] To align with our previous work, experiments were conducted with a 72 h time frame for cytotoxicity evaluation.
After a 72 h incubation period, plates were removed from the incubator and 10 µL of MTT was added to each well. The plates were returned to the incubator for an additional 4 h, after which 100 µL of a solubilization solution was added to each well. The plates were returned to incubation overnight, and the next day absorbances were read at 570 nm on a Molecular Devices FlexStation 3 using SoftMax Pro Microplate Data Acquisition and Analysis Software (version 7.0.2).

[2] = Human serum stability assay (UPLC-MS); details: data points of 3 h, 8 h and 24 h; human serum from male AB plasma, 300 µM stock diluted 10 times, 37 °C, UPLC-MS peak area vs control, triplicate
Procedure: Established protocols were used to analyze peptide stability in human serum isolated from male AB plasma (Sigma-Aldrich). Briefly, thawed plasma was centrifuged for 10 min at 15,000× g to concentrate lipids. The supernatant was carefully removed with a Pasteur pipette and incubated for 15 min at 37 °C, 5% CO2. […] Controls were synthetic Kalata B1 or TMZ in PBS that were incubated in parallel with human serum test compounds. Serum proteins were denatured with urea (final concentration of 3M) at 4 °C for 10 min., at each time point. Afterwards, trichloroacetic acid (7% final v/v) was added for 10 min to precipitate the proteins. Each sample was centrifuged for 10 min at 15,000× g; the supernatant was removed an evaluated in triplicate using UPLC-MS.
We conducted peptide stability assays in human serum isolated from male AB plasma and then analyzed with UPLC-MS. Synthetic Kalata B1 and TMZ were incubated with human serum and the portion of the peptide remaining was quantified by calculating the area of the respective elution peak in UPLC-MS, compared to the control.
Percentage of Kalata B1 and TMZ remaining upon incubation with human serum. The portion of serum-treated peptide remaining was determined by calculating the area of the respective elution peak in UPLC-MS and comparing it with the control without incubation. Data points are means ± SEM.

[3] = cited from earlier work
Source text: One of our objectives is to promote research that investigates methods to decrease the required concentrations of drugs such as TMZ for efficacy in vivo. Therefore, it is important to analyze the stability of cyclotides in human serum. The trypsin inhibitor cyclotide, MCoTI-II, has been extracted from the seeds of Momordica cochinchinensis Spreng. [Cucurbitaceae]. […] Huang and colleagues repeated these experiments with MCoTI-II and an ...

glioblastoma cells = details: cited from earlier work
U-87 MG cells = details: cited from earlier work

Q: Which IC50 [1] does the source give for CC[C@H](C)[C@@H]1NC(=O)[C@H](C)NC(=O)[C@H](CO)NC(=O)[C@H]([C@@H](C)O)NC(=O)[C@H](CC(C)C)NC(=O)[C@@H]2CSSC[C@@H]3NC(=O)[C@H](C(C)C)NC(=O)[C@H](CCCCN)NC(=O)[C@H](CO)NC(=O)[C@H](CCCCN)NC(=O)[C@@H]4CSSC[C@H](NC(=O)[C@H](CO)NC(=O)[C@H](CCC(=O)O)NC(=O)CNC(=O)[C@H](CSSC[C@H](NC(=O)CNC1=O)C(=O)N[C@@H](CO)C(=O)N4)NC(=O)[C@@H]1CCCN1C(=O)[C@H]([C@@H](C)CC)NC(=O)CNC(=O)[C@H](CC(N)=O)NC(=O)[C@H](CCCNC(=N)N)NC(=O)[C@H](Cc1ccc(O)cc1)NC3=O)C(=O)N[C@@H](C(C)C)C(=O)N[C@@H](Cc1c[nH]c3ccccc13)C(=O)N[C@@H]([C@@H](C)CC)C(=O)N1CCC[C@H]1C(=O)N2 [CyO3, Cycloviolacin O3] (cyclo(AIGCSCKSKVCYRNGIPCGESCVWIPCLTS); disulfide 4-18, 6-22, 11-27) here?
A: The IC50 was 2.6 ± 0.05 µM.

Q: Which IC50 [1] does the source give for CC[C@H](C)[C@@H]1NC(=O)[C@@H]2CSSC[C@@H]3NC(=O)[C@H](C(C)C)NC(=O)[C@H](CCCCN)NC(=O)[C@H](CO)NC(=O)[C@H](CCCCN)NC(=O)[C@@H]4CSSC[C@H](NC(=O)[C@H](CO)NC(=O)[C@H](CCC(=O)O)NC(=O)CNC(=O)[C@H](CSSC[C@H](NC(=O)CNC(=O)[C@H](C(C)C)NC(=O)[C@H](C(C)C)NC(=O)[C@H](CO)NC(=O)[C@H](CO)NC1=O)C(=O)N[C@@H](CO)C(=O)N4)NC(=O)[C@@H]1CCCN1C(=O)[C@H](CC(C)C)NC(=O)[C@H]([C@@H](C)O)NC(=O)CNC(=O)[C@H](CC(=O)O)NC(=O)[C@H](CCCCN)NC(=O)[C@H](Cc1ccc(O)cc1)NC3=O)C(=O)N[C@@H](C(C)C)C(=O)N[C@@H](Cc1c[nH]c3ccccc13)C(=O)N[C@@H]([C@@H](C)CC)C(=O)N1CCC[C@H]1C(=O)N2 [CyO19, Cycloviolacin O19] (cyclo(CGESCVWIPCISSVVGCSCKSKVCYKDGTLP); disulfide 1-17, 5-19, 10-24) here?
A: The IC50 was 2.4 ± 0.07 µM.

Q: For CC(C)C[C@@H]1NC(=O)CNC(=O)[C@H](CC(N)=O)NC(=O)[C@H](CCCNC(=N)N)NC(=O)[C@H]([C@@H](C)O)NC(=O)[C@@H]2CSSC[C@@H]3NC(=O)[C@H]([C@@H](C)O)NC(=O)CNC(=O)CNC(=O)[C@H](C(C)C)NC(=O)[C@@H]4CSSC[C@H](NC(=O)[C@H]([C@@H](C)O)NC(=O)[C@H](CSSC[C@H](NC(=O)[C@H](C(C)C)NC(=O)[C@@H]5CCCN5C1=O)C(=O)NCC(=O)N[C@@H](CCC(=O)O)C(=O)N[C@@H]([C@@H](C)O)C(=O)N4)NC(=O)CNC(=O)[C@@H]1CCCN1C(=O)[C@H]([C@@H](C)O)NC(=O)[C@H](CC(N)=O)NC3=O)C(=O)N[C@@H](CO)C(=O)N[C@@H](Cc1c[nH]c3ccccc13)C(=O)N1CCC[C@H]1C(=O)N[C@@H](C(C)C)C(=O)N2 [Kalata B1], which “Stability in human serum (in words)” value [2] is on record?
A: Its value is “remained stable”.

Q: For CC(C)C[C@@H]1NC(=O)CNC(=O)[C@H](CC(N)=O)NC(=O)[C@H](CCCNC(=N)N)NC(=O)[C@H](Cc2ccccc2)NC(=O)[C@@H]2CSSC[C@@H]3NC(=O)[C@H]([C@@H](C)O)NC(=O)CNC(=O)CNC(=O)[C@H](C(C)C)NC(=O)[C@@H]4CSSC[C@H](NC(=O)[C@H](CO)NC(=O)[C@H](CSSC[C@H](NC(=O)[C@H](C(C)C)NC(=O)[C@@H]5CCCN5C1=O)C(=O)NCC(=O)N[C@@H](CCC(=O)O)C(=O)N[C@@H]([C@@H](C)O)C(=O)N4)NC(=O)CNC(=O)[C@@H]1CCCN1C(=O)[C@H]([C@@H](C)O)NC(=O)[C@H](CC(N)=O)NC3=O)C(=O)N[C@@H](CO)C(=O)N[C@@H](Cc1c[nH]c3ccccc13)C(=O)N1CCC[C@H]1C(=O)N[C@@H](C(C)C)C(=O)N2 [Vitri E], which IC50 [1] is on record?
A: Its IC50 is 21.1 ± 2.9 µM.

Q: With “MCoTI-II: trypsin inhibitor cyclotide extracted from the seeds of Momordica cochinchinensis; three-disulfide peptide (cyclo(SGSDGGVCPKILKKCRRDSDCPGACICRGNGYCG); disulfide (positions not given here); also: three disulfides, pairing not given here; UniProt P82409 1-34, looked up)” as the compound, how does the “Peptide remaining in human serum” value ([3]; 24 h) read?
A: Its value is 100%.

Q: What about the “Time for which the peptide remained stable in human serum” value [3] of the same compound?
A: Its value is “at least 24 h”.

Q: Which IC50 (glioblastoma cells) does the source give for Varv peptide A here?
A: Its IC50 is 2910 nM.

Q: What about the “Fold less TMZ required for significant cell death on co-exposure with the cyclotide” value (U-87 MG cells) of the same compound?
A: The value was 2 fold.
